Experimental findings from patent US7589186B2, “Isolated hOAT polynucleotide” (priority 1998, dated 2009) are described below.

The test system of one series is CHO-hOAT cells. Description: Cytotoxicity in CHO-hOAT compared to CHO cells. Format: cell-based, Chinese hamster. To be noted: for fold more cytotoxic in CHO-hOAT compared to CHO cells: without probenecid. An excerpt:
(§1) Uptake and cytotoxicity of ADV in the two cell lines was compared.

A further series has as its target hOAT (Homo sapiens, UniProt Q4U2R8). The experiment in a line: Uptake of antiviral nucleotides (ADV, CDV, cCDV) in CHO-hOAT versus CHO cells. The following applies: for Vmax of uptake by CHO-hOAT / accumulation in CHO-hOAT (in words): CHO-hOAT cells. The protocol:
pIRES-hOAT plasmid was transfected into CHO-K1 cells (ATCC CCL61) growing in F-12 nutrient mixture supplemented with 10% fetal bovine serum, 100 U/ml penicillin, and 100 μg/ml streptomycin. 24 hours before transfection, approximately 6×10^6 CHO-K1 cells were seeded into 100-mm Petri dish. At the time of transfection, media was aspirated and 6 ml of fresh media containing 12 μg of pIRES-hOAT and 60 μg of Cytofectin GSV cationic lipid (Glen Research, Sterling, Va.) was added to the cells. Following overnight incubation, selection of stable transformants started in phenol red-free F-12 nutrient mixture containing fetal bovine serum, penicillin and streptomycin as above, plus 1 mg/ml G418 (CLONTECH). […] For the PAH uptake assay, the cells were seeded into 12-well plates at the density of 2×10^5 cell/well. After 48 hours, growth media was aspirated and the cells were washed twice with phosphate buffered saline (PBS). […] After 90 min incubation at 37° C. in the transport buffer, the cells were washed 3-times with ice-cold PBS (2 ml/well) and lysed directly on the plate in the presence of 0.3% Triton X-100 (0.5 ml/well) for 20 min at room temperature. Plates were washed with additional 0.5 ml/well of Triton X-100, the lysate and wash were combined, scintillation fluid was added, and the radioactivity counted.
as §1

Substrate in series [1]: Nc1ccn(C[C@@H](CO)OCP(=O)(O)O)c(=O)n1
Description: cells, lysate or membranes. To be noted: other: CHO-hOAT cells; pH 7.2; 37.0 °C.
Description: (§2) pIRES-hOAT plasmid was transfected into CHO-K1 cells (ATCC CCL61) growing in F-12 nutrient mixture supplemented with 10% fetal bovine serum, 100 U/ml penicillin, and 100 μg/ml streptomycin. 24 hours before transfection, approximately 6×10^6 CHO-K1 cells were seeded into 100-mm Petri dish. At the time of transfection, media was aspirated and 6 ml of fresh media containing 12 μg of pIRES-hOAT and 60 μg of Cytofectin GSV cationic lipid (Glen Research, Sterling, Va.) was added to the cells. Following overnight incubation, selection of stable transformants started in phenol red-free F-12 nutrient mixture containing fetal bovine serum, penicillin and streptomycin as above, plus 1 mg/ml G418 (CLONTECH). […] For the PAH uptake assay, the cells were seeded into 12-well plates at the density of 2×10^5 cell/well. After 48 hours, growth media was aspirated and the cells were washed twice with phosphate buffered saline (PBS). […] Plates were washed with additional 0.5 ml/well of Triton X-100, the lysate and wash were combined, scintillation fluid was added, and the radioactivity counted.

Substrate in series [2]: Nc1ncnc2c1ncn2CCOCP(=O)(O)O
Description: cells, lysate or membranes. To be noted: other: CHO-hOAT cells; pH 7.2; 37.0 °C.
Description: as §2

Take `Nc1ncnc2c1ncn2CCOCP(=O)(O)O` [ADV, Adefovir]: the “fold more susceptible CHO-hOAT than CHO in the presence of PBC” value with CHO-hOAT cells (in the presence of 1 mM PBC) stood at 3 fold. Also, in the series on CHO-hOAT cells, the “fold more cytotoxic in CHO-hOAT compared to CHO cells” value was about 500 fold. Besides, on hOAT, the “Vmax of uptake by CHO-hOAT” value worked out at 390 pmol/10^6 cells. Besides, on hOAT (CHO-hOAT vs CHO cells), the “accumulation in CHO-hOAT compared to CHO” value is over 300 fold.

For `Nc1ccn(C[C@H]2COP(=O)(O)CO2)c(=O)n1` [cCDV], the “increase of cytotoxicity in CHO-hOAT cells (in words)” value in the series on CHO-hOAT cells was “increased to much lesser extent”. Also, the “accumulation in CHO-hOAT (in words)” value on hOAT was “not”.

Take `Nc1ccn(C[C@@H](CO)OCP(=O)(O)O)c(=O)n1` [CDV, cidofovir]: in the series on CHO-hOAT cells (CHO-hOAT cells, with PBC), the “effect of PBC on cytotoxicity (in words)” value was “significantly reduced by PBC”. The “fold more cytotoxic in CHO-hOAT compared to CHO cells” value in the series on CHO-hOAT cells is recorded as over 400 fold. At hOAT, the “Vmax of uptake by CHO-hOAT” value was 1,110 pmol/10^6 cells and the “accumulation in CHO-hOAT (in words)” value is “efficiently accumulated”.

B1: hOAT (Homo sapiens) (protein)
chain: MAFNDLLQQVGGVGRFQQIQVTLVVLPLLLMASHNTLQNFTAAIPTHHCRPPADANLSKNGGLEVWLPRDRQGQPESCLRFTSPQWGLPFLNGTEANGTGATEPCTDGWIYDNSTFPSTIVTEWDLVCSHRALRQLAQSLYMVGVLLGAMVFGYLADRLGRRKVLILNYLQTAVSGTCAAFAPNFPIYCAFRLLSGMALAGISLNCMTLNVEWMPIHTRACVGTLIGYVYSLGQFLLAGVAYAVPHWRHLQLLVSAPFFAFFIYSWFFIESARWHSSSGRLDLTLRALQRVARINGKREEGAKLSMEVLRASLQKELTMGKGQASAMELLRCPTLRHLFLCLSMLWFATSFAYYGLVMDLQGFGVSIYLIQVIFGAVDLPAKLVGFLVINSLGRRPAQMAALLLAGICILLNGVIPQDQSIVRTSLAVLGKGCLAASFNCIFLYTGELYPTMIRQTGMGMGSTMARVGSIVSPLVSMTAELYPSMPLFIYGAVPVAASAVTVLLPETLGQPLPDTVQDLESRKGKQTRQQQEHQKYMVPLQASAQEKNGL
As usually defined, the Km is the concentration of substrate that gives half-maximal velocity. On to B1, for which the Km amounted to 70 µM in series [1] and 23 µM in series [2].
